One experiment deals with recombinant human PKR (Homo sapiens, UniProt P30613). In words: pyruvate kinase (PKR) activity test, activation of recombinant enzyme (fluorescence kit). It counts as biochemical. As for the experimental part: To test the activation effect of the compound of the present disclosure on recombinant human PKR.
3.1 A recombinant human PKR enzyme solution was prepared at a concentration of 60 ng/well (a 20 µL reaction system), and 5 µL of the solution was added into each well of a black transparent bottom 384-well plate.
3.2 Compound solutions were prepared at different concentrations, with the final concentrations of 1000/300/100 nM (containing 1% DMSO). Each 5 µL of the compound solution was added into the plate in step 3.1 and mixed well. The plate was incubated at room temperature for 10 min.
3.3 A reaction system was prepared according to the instructions of a kit (as shown in the table below), and 10 µL of the reaction system was added into each well of the 384-well plate, and mixed uniformly with the solution in step 3.2.
3.4 The 384-well plate was placed on a microplate reader to detect the fluorescence value at 540/590 nm, where the value was read every 2 minutes and the detection was conducted continuously for 1 hour.
3.5 The Slope value within the detection time was calculated, and the 1% DMSO well was used as a control well to calculate a compound activation rate. Activation rate % = (Slopeofcompoundwell/Slopeofcontrolwell) × 100% [formula]
With the log value of the compound concentration as the X axis and the percentage activation rate as the Y axis, a dose-effect curve was fitted with the log(agonist) vs. response-variable slope of the analysis software GraphPad Prism 5, and the AC50 value of the activity of each compound against PKR was obtained. Y = min + (max−min)/(1+10^(∧)((LogAC50−X)×Hillslope)). [formula]

The target of experiment [1] is T1, PKR in ex vivo red blood cells from healthy individuals (Homo sapiens, UniProt P30613).
T1 construct: endogenous in cells; host or cells: human red blood cells isolated from fresh peripheral blood of healthy individuals
In words: ex vivo pyruvate kinase (PKR) activity experiment, red blood cells of healthy individuals. It is filed as cell-based. The settings on record: 3 hours co-cultivation. The gist of the method:
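Washed, Percoll-purified human RBCs at 1 × 10^7 cells/mL were exposed to compound (final 1–3000 nM, 1% DMSO) for 3 h at 37°C, then lysed. PKR activity in lysate was followed kinetically by fluorescence at 540/590 nm over 1 h. Slope versus 1% DMSO control gave % activation; AC50 from variable-slope fit.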

For experiment [2] the following is noted: Phase II clinical studies, at week 12; cited from earlier work.

We go through four compounds from patent EP4721737A1, “USE OF PHARMACEUTICAL COMPOSITION COMPRISING COMPOUND HAVING BIS(AZANYLYLIDENE) SULFONYL STRUCTURE FOR TREATING ANEMIA-RELATED DISEASES” (Scinnohub Pharmaceutical Co., Ltd., priority 2023, dated 2024).

Molecules are shown by their SMILES.

By AC50 is commonly meant the concentration at which the activity in the assay is half-maximal.

Sequence of recombinant human PKR (P30613 whole entry): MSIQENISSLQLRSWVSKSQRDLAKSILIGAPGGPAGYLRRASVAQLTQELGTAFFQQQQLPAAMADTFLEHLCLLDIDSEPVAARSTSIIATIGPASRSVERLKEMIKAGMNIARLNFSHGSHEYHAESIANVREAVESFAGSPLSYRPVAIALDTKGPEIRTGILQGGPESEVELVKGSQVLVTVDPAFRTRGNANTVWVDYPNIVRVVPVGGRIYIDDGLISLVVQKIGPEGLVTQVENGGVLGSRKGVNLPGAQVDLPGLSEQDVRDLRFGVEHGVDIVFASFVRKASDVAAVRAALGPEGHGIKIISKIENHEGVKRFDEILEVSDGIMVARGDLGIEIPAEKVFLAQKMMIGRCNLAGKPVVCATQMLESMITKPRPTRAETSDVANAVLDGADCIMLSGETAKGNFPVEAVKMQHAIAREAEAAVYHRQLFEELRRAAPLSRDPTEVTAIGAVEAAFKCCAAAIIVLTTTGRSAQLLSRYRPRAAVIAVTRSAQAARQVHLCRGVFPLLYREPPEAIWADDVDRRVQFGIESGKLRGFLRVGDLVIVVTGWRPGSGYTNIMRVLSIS
T1 sequence (P30613 whole entry): as above

`COc1ccc(S(=O)(=O)N2CC(=C3CN(C(=O)[C@H](CO)c4ccc(F)cc4F)C3)C2)nc1` [Compound 87, (S)-2-(2,4-difluorophenyl)-3-hydroxy-1-(1'-((5-methoxypyridin-2-yl)sulfonyl)-1',4'-dihydro-2H,2'H-[3,3'-diazetidinylidene]-1(4H)-yl)propan-1-one]: the AC50 (at recombinant human PKR; in experiment [1]) was under 100 nM throughout.

With `O=C(N1CC(=C2CN(S(=O)(=O)c3ccccn3)C2)C1)C1(c2ccccc2)COC1` [Compound 89, (3-phenyloxetan-3-yl)(1'-(pyridin-2-ylsulfonyl)-1',4'-dihydro-2H,2'H-[3,3'-diazetidinylidene]-1(4H)-yl)methanone], the AC50 is 101 to 300 nM on recombinant human PKR and under 100 nM in experiment [1].

As to `[2H]C([2H])([2H])Oc1ccc(S(=O)(=O)N2CC(=C3CN(C(=O)[C@H](CO)c4ccccc4)C3)C2)nc1` [Compound 91, (S)-3-hydroxy-1-(1'-((5-(methoxy-d3)pyridin-2-yl)sulfonyl)-1',4'-dihydro-2H,2'H-[3,3'-diazetidinylidene]-1(4H)-yl)-2-phenylpropan-1-one], the AC50 (at recombinant human PKR; in experiment [1]) was under 100 nM each time.

Take `O=C(c1ccc(NS(=O)(=O)c2cccc3cccnc23)cc1)N1CCN(CC2CC2)CC1` [Mitapivat]: in experiment [2], the “average increase in HGB” value is given as 1.34 g/dL and the “patients achieved an increase in HGB of 1.0 g/dL” value was 92.3%.
